Experimental data: ChEMBL document CHEMBL4177665, “Inhibitory effect of moschamine isolated from Carthamus tinctorius on LPS-induced inflammatory mediators via AP-1 and STAT1/3 inactivation in RAW 264.7 macrophages” (Bioorg Med Chem Lett, 2017)
Blank lines part the entries; values can stand above or below the compound they belong to. Activity calls are given as the source filed them. The calls are words filed in the database; no cut-off is given here.

Columns and labels:
[1] = test system: RAW264.7; assay: Antiinflammatory activity in mouse RAW264.7 cells assessed as inhibition of LPS-induced nitric oxide production measured after 24 hrs by Griess assay; format: functional, cell-based; conditions: RAW264.7, 24 h
[2] = test system: RAW264.7; assay: Cytotoxicity against mouse RAW264.7 cells assessed as reduction in cell viability up to 200 uM measured after 24 hrs in presence of LPS by MTT assay; format: cell-based; conditions: raw264.7, 24 h
[3] = test system: RAW264.7; assay: Antiinflammatory activity in mouse RAW264.7 cells assessed as inhibition of LPS-induced PGE2 production pretreated for 1 hr followed by LPS addition measured after 24 hrs; format: functional, cell-based
[4] = test system: RAW264.7; assay: Cytotoxicity against mouse RAW264.7 cells assessed as reduction in cell viability up to 200 uM measured after 24 hrs in absence of LPS by MTT assay; format: cell-based; conditions: raw264.7, 24 h
[5] = target: Tyrosine-protein kinase JAK1 (Mus musculus) (UniProt P52332); assay: Inhibition of JAK1 in LPS-stimulated mouse RAW264.7 cells assessed as reduction in STAT3 phosphorylation at […] residue pretreated for 1 hr followed by LPS-stimulation by Western blot analysis; format: cell-based
Sequence of Tyrosine-protein kinase JAK1 (Mus musculus) (P52332 whole entry): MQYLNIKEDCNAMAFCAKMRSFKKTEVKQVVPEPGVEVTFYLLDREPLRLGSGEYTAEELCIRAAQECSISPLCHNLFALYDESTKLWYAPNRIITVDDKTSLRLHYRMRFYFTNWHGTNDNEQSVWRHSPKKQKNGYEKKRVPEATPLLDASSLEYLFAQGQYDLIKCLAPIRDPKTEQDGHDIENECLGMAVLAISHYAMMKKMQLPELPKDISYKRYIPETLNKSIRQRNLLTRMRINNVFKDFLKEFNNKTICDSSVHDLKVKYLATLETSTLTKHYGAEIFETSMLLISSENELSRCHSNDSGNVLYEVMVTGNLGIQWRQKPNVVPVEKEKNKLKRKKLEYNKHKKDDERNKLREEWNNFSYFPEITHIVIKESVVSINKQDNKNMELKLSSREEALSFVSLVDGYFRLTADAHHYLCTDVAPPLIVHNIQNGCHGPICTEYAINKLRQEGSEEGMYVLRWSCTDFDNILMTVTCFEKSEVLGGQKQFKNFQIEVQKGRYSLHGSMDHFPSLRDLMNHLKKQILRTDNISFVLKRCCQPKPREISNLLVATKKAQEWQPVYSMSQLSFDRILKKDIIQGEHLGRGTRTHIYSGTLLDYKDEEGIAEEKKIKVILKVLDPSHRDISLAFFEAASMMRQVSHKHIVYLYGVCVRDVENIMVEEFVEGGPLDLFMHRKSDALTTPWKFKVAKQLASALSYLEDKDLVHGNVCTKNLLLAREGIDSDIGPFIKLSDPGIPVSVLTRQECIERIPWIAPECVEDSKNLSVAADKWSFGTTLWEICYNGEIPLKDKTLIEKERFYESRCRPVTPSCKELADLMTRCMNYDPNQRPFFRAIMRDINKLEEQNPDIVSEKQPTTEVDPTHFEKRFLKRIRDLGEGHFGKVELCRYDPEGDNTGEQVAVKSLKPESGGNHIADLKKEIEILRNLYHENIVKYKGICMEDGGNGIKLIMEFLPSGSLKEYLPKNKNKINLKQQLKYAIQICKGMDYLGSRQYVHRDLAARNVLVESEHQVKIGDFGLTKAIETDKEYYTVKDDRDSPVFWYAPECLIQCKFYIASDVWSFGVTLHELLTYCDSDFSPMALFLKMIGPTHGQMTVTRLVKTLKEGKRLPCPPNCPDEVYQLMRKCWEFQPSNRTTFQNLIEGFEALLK

[6] = target: MAP kinase p38 (Mus musculus) (UniProt P47811+O08911+Q9WUI1+Q9Z1B7); assay: Inhibition of LPS-induced p38 phosphorylation in mouse RAW264.7 cells at 50 uM pretreated for 1 hr followed by LPS-stimulation measured up to 30 mins by Western blot analysis; format: cell-based
[7] = test system: RAW264.7; assay: Antiinflammatory activity in mouse RAW264.7 cells assessed as inhibition of LPS-stimulated IL-6 production in mouse RAW264.7 cells at 50 uM pretreated for 1 hr followed by LPS addition measured after 24 hrs by enzyme immunoassay relative to control; format: functional
[8] = test system: RAW264.7; assay: Antiinflammatory activity in mouse RAW264.7 cells assessed as inhibition of LPS-stimulated mPGES1 expression at 12.5 to 50 uM pretreated for 1 hr followed by LPS-stimulation measured after 12 hrs by Western blot analysis; format: functional, cell-based
[9] = test system: RAW264.7; assay: Antiinflammatory activity in mouse RAW264.7 cells assessed as inhibition of LPS-induced nitric oxide production pretreated for 1 hr followed by LPS stimulation measured after 24 hrs by Griess assay; format: functional, cell-based
[10] = test system: RAW264.7; assay: Inhibition of LPS-induced c-JUN expression in mouse RAW264.7 cells at 50 uM pretreated for 1 hr followed by LPS-stimulation measured up to 30 mins by Western blot analysis; format: functional, cell-based
[11] = target: Transcription factor Jun (Homo sapiens) (UniProt P05412); assay: Inhibition of AP1 (unknown origin) expressed in LPS-stimulated mouse RAW264.7 cells at 12.5 to 50 uM pretreated for 1 hr followed by LPS-stimulation measured after 18 hrs by luciferase reporter gene assay; format: cell-based
Sequence of Transcription factor Jun (Homo sapiens) (P05412 whole entry): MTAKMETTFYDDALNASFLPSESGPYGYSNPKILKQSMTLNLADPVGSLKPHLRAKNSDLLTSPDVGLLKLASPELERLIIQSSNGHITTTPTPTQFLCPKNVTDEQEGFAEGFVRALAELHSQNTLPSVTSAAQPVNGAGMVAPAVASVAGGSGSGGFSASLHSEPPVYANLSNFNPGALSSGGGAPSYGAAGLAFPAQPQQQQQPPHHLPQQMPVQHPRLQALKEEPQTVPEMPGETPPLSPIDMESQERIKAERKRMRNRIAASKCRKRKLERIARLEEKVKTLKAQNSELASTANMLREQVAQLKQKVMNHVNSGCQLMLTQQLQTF

[12] = test system: RAW264.7; assay: Antiinflammatory activity in mouse RAW264.7 cells assessed as inhibition of LPS-stimulated IL1beta mRNA expression at 50 uM measured up to 6 hrs by SYBR green dye based RT-PCR analysis; format: functional, cell-based
[13] = test system: RAW264.7; assay: Antiinflammatory activity in mouse RAW264.7 cells assessed as inhibition of LPS-stimulated IL1beta production in mouse RAW264.7 cells pretreated for 1 hr followed by LPS addition measured after 24 hrs by enzyme immunoassay; format: functional, cell-based
[14] = test system: RAW264.7; assay: Inhibition of LPS-induced JNK phosphorylation in mouse RAW264.7 cells at 50 uM pretreated for 1 hr followed by LPS-stimulation measured up to 30 mins by Western blot analysis; format: cell-based
[15] = target: Transcription factor Jun (Mus musculus) (UniProt P05627); assay: Inhibition of LPS-induced c-JUN phosphorylation in mouse RAW264.7 cells at 50 uM pretreated for 1 hr followed by LPS-stimulation measured up to 30 mins by Western blot analysis; format: cell-based
Sequence of Transcription factor Jun (Mus musculus) (P05627 whole entry): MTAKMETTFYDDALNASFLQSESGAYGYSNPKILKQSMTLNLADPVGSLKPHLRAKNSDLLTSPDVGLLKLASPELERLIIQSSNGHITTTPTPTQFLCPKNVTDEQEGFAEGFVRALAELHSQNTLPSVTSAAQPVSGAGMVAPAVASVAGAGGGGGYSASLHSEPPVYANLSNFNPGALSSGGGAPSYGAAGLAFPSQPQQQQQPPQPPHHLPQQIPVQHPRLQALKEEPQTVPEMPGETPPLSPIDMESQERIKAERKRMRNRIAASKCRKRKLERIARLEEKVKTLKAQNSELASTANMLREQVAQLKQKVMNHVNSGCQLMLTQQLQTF

[16] = target: Protein c-Fos (Mus musculus) (UniProt P01101); assay: Inhibition of LPS-induced c-FOS phosphorylation in mouse RAW264.7 cells at 50 uM pretreated for 1 hr followed by LPS-stimulation measured after 15 mins by Western blot analysis; format: cell-based
Sequence of Protein c-Fos (Mus musculus) (P01101 whole entry): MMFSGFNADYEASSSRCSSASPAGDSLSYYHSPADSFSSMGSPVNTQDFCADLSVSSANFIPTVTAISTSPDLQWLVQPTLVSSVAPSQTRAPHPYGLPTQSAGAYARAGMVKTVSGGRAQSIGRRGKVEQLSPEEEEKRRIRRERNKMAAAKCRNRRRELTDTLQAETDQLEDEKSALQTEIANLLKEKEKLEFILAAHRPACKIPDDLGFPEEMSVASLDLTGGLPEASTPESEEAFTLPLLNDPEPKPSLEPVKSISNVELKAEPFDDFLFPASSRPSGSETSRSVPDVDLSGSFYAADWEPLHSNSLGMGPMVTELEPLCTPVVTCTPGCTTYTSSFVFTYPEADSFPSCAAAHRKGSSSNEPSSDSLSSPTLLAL

[17] = test system: RAW264.7; assay: Antiinflammatory activity in mouse RAW264.7 cells assessed as inhibition of LPS-stimulated IL1beta production in mouse RAW264.7 cells at 50 uM pretreated for 1 hr followed by LPS addition measured after 24 hrs by enzyme immunoassay relative to control; format: functional
[18] = test system: RAW264.7; assay: Antiinflammatory activity in mouse RAW264.7 cells assessed as inhibition of LPS-stimulated iNOS mRNA expression at 50 uM measured up to 12 hrs by SYBR green dye based RT-PCR analysis; format: functional, cell-based
[19] = test system: RAW264.7; assay: Inhibition of LPS-induced c-FOS expression in mouse RAW264.7 cells at 50 uM pretreated for 1 hr followed by LPS-stimulation measured after 15 mins by Western blot analysis; format: functional, cell-based
[20] = test system: RAW264.7; assay: Inhibition of NFKappaB (unknown origin) expressed in LPS-stimulated mouse RAW264.7 cells by luciferase reporter gene assay; format: cell-based; conditions: Homo sapiens
[21] = target: Tyrosine-protein kinase JAK1 (Mus musculus) (UniProt P52332); assay: Inhibition of JAK1 in LPS-stimulated mouse RAW264.7 cells assessed as reduction in STAT1 phosphorylation at S727 residue pretreated for 1 hr followed by LPS-stimulation by Western blot analysis; format: cell-based
[22] = test system: RAW264.7; assay: Antiinflammatory activity in mouse RAW264.7 cells assessed as inhibition of LPS-stimulated iNOS expression at 12.5 to 50 uM pretreated for 1 hr followed by LPS-stimulation measured after 12 hrs by Western blot analysis; format: functional, cell-based
[23] = target: Tyrosine-protein kinase JAK1 (Mus musculus) (UniProt P52332); assay: Inhibition of JAK1 in LPS-stimulated mouse RAW264.7 cells assessed as reduction in STAT1 phosphorylation at Y701 residue pretreated for 1 hr followed by LPS-stimulation by Western blot analysis; format: cell-based
[24] = test system: RAW264.7; assay: Antiinflammatory activity in mouse RAW264.7 cells assessed as inhibition of LPS-stimulated COX2 mRNA expression at 50 uM measured up to 12 hrs by SYBR green dye based RT-PCR analysis; format: functional, cell-based
[25] = test system: RAW264.7; assay: Antiinflammatory activity in mouse RAW264.7 cells assessed as inhibition of LPS-stimulated mPGES1 mRNA expression at 50 uM measured up to 12 hrs by SYBR green dye based RT-PCR analysis; format: functional, cell-based
[26] = test system: RAW264.7; assay: Antiinflammatory activity in mouse RAW264.7 cells assessed as inhibition of LPS-stimulated COX2 expression at 12.5 to 50 uM pretreated for 1 hr followed by LPS-stimulation measured after 12 hrs by Western blot analysis; format: functional, cell-based
[27] = test system: RAW264.7; assay: Inhibition of LPS-induced ERK phosphorylation in mouse RAW264.7 cells at 50 uM pretreated for 1 hr followed by LPS-stimulation measured up to 30 mins by Western blot analysis; format: cell-based
[28] = test system: RAW264.7; assay: Antiinflammatory activity in mouse RAW264.7 cells assessed as inhibition of LPS-stimulated IL-6 mRNA expression at 50 uM measured up to 6 hrs by SYBR green dye based RT-PCR analysis; format: functional, cell-based
[29] = test system: RAW264.7; assay: Antiinflammatory activity in mouse RAW264.7 cells assessed as inhibition of LPS-stimulated IL-6 production pretreated for 1 hr followed by LPS addition measured after 24 hrs by enzyme immunoassay; format: functional, cell-based

IC50 [1]: 164 µM
IC50 [3]: 43.2 µM
SMILES: O=C(/C=C/c1ccc(O)cc1)NCCc1c[nH]c2ccc(O)cc12 [N-P-COUMAROYL SEROTONIN]
Activity [2]: Non-Toxic
Activity [4]: Non-Toxic

IC50 [1]: > 200 µM
IC50 [3]: > 100 µM
SMILES: COc1cc(/C=C/C(=O)NCCc2c[nH]c3ccc(O)c(-c4c(O)ccc5[nH]cc(CCNC(=O)/C=C/c6ccc(O)c(OC)c6)c45)c23)ccc1O
Activity [2]: Non-Toxic
Activity [4]: Non-Toxic

IC50 [1]: > 200 µM
IC50 [3]: > 100 µM
SMILES: CC(=O)OC[C@H]1O[C@@H](O[C@H](C)[C@H]2C[C@H](O)[C@H]3[C@@H]4CCC5=CC(=O)CC[C@]5(C)[C@H]4CC[C@@]32C)[C@H](O)[C@@H](O)[C@@H]1O[C@@H]1O[C@H](CO)[C@@H](O)[C@H](O)[C@H]1O
Activity [2]: Non-Toxic
Activity [4]: Non-Toxic

IC50 [1]: > 200 µM
IC50 [3]: > 100 µM
SMILES: COc1cc(C[C@@H](CO)[C@H](CO)Cc2ccc(O)c(OC)c2)ccc1O [(+)-SECOISOLARICIRESINOL]
Activity [2]: Non-Toxic
Activity [4]: Non-Toxic

IC50 [1]: > 200 µM
IC50 [3]: > 100 µM
SMILES: O=C(/C=C/c1ccc(O)cc1)NCCc1c[nH]c2ccc(O)c(-c3c(O)ccc4[nH]cc(CCNC(=O)/C=C/c5ccc(O)cc5)c34)c12
Activity [2]: Non-Toxic
Activity [4]: Non-Toxic

IC50 [1]: 28.3 µM
SMILES: CC(=N)NCCCC[C@H](N)C(=O)O [L-NIL]

IC50 [1]: > 200 µM
IC50 [3]: > 100 µM
SMILES: COc1cc(/C=C/C(=O)NCCc2c[nH]c3ccc(O)c(-c4c(O)ccc5[nH]cc(CCNC(=O)/C=C/c6ccc(O)cc6)c45)c23)ccc1O
Activity [2]: Non-Toxic
Activity [4]: Non-Toxic

IC50 [1]: 135 µM
IC50 [3]: 89.8 µM
SMILES: O=C(/C=C/c1ccc(O)cc1)NCCc1c[nH]c2ccc(O[C@@H]3O[C@H](CO)[C@@H](O)[C@H](O)[C@H]3O)cc12
Activity [2]: Non-Toxic
Activity [4]: Non-Toxic

IC50 [1]: > 200 µM
IC50 [3]: > 100 µM
SMILES: COc1ccc(C[C@H]2COC(=O)[C@]2(O)Cc2ccc(O[C@@H]3O[C@H](CO)[C@@H](O)[C@H](O)[C@H]3O)c(OC)c2)cc1OC
Activity [2]: Non-Toxic
Activity [4]: Non-Toxic

inhibition [5]: Dose-dependent effect
inhibition [6]: Active
inhibition [11]: Active
IC50 [1]: 123 µM
inhibition [15]: inactive
inhibition [16]: Active
IC50 [3]: 14.7 µM
inhibition [21]: Dose-dependent effect
inhibition [23]: Dose-dependent effect
SMILES: COc1cc(/C=C/C(=O)NCCc2c[nH]c3ccc(O)cc23)ccc1O [N-FERULOYL SEROTONIN]
inhibition at 50 µM [7]: 25.1%
inhibition [8]: Active
inhibition [9]: Dose-dependent effect
inhibition [10]: inactive
inhibition [12]: Active
inhibition [13]: Dose-dependent effect
inhibition [14]: inactive
Activity [2]: Non-Toxic
inhibition at 50 µM [17]: 52.2%
inhibition [18]: Active
inhibition [19]: Active
inhibition [3]: Dose-dependent effect
inhibition [20]: inactive
inhibition [22]: Active
inhibition [24]: Active
inhibition [25]: Active
inhibition [26]: Active
inhibition [27]: Active
inhibition [28]: Active
inhibition [29]: Dose-dependent effect
Activity [4]: Non-Toxic
